This is an account of results in US8889704B2 (Array BioPharma Inc., priority 2011, dated 2014).

Counter-ions that a name gives are not always drawn. Bounds are passed on as bounds.

What all share (format): biochemical
One assay addresses PIM-1 (Homo sapiens, UniProt P11309). As to the kind of experiment: Enzyme PIM-1 Assay ([33P]ATP incorporation into PIM2tide, filter plate). To be noted: averaged IC50; 35 μM ATP, 7.5 μM PIM2tide, 0.25 nM PIM-1, 60 min at 22° C. The essentials: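 Ten-point, 3-fold dilution series (10 μM top, 2% DMSO final) tested for inhibition of 33P transfer from 35 μM ATP to 7.5 μM PIM2tide by 0.25 nM PIM-1. Reaction 60 min, 22 °C, pH 7.4 MOPS/MgCl2 buffer; phosphocellulose capture, scintillation counting, IC50 where fitted POC equals 50.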

The target in a further assay is recombinant rat PIM-3 (Rattus norvegicus, UniProt O70444). As to the kind of experiment: PIM-3 Assay (as Example A). The conditions noted are these: averaged IC50; 30 μM ATP, 3.75 μM PIM2tide, 0.5 nM PIM-3. The essentials:
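33P incorporation from 30 μM [γ-33P]ATP into 3.75 μM PIM2tide by 0.5 nM rat PIM-3, 60 min at 22 °C in pH 7.4 MOPS buffer, read by P81 filter capture and scintillation counting. Compounds tested in 3-fold dilutions up to 10 μM final, 2% DMSO; percent-of-control data fitted by 4-parameter logistic for IC50.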

The target of assay [1] is T1, GST-tagged recombinant full-length human Pim-2 (Homo sapiens, UniProt Q9P1W9).
T1 construct: GST-tagged recombinant full-length human Pim-2; GST
Put plainly: PIM-2 Assay (as Example A). To be noted: averaged IC50; 4 μM ATP, 1.0 μM PIM2tide, 1.5 nM Pim-2. The procedure, abridged:
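IC50 was derived by 4-parameter logistic fitting of percent-of-control data over a 10-point, 3-fold series (highest 10 μM, 2% DMSO). Reactions held 1.5 nM GST-Pim-2 (full-length, human), 4 μM [γ-33P]ATP and 1.0 μM PIM2tide for 60 min at 22 °C, pH 7.4; 33P-peptide captured on P81 filters.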

Chain of PIM-1 (P11309 whole entry, species assumed): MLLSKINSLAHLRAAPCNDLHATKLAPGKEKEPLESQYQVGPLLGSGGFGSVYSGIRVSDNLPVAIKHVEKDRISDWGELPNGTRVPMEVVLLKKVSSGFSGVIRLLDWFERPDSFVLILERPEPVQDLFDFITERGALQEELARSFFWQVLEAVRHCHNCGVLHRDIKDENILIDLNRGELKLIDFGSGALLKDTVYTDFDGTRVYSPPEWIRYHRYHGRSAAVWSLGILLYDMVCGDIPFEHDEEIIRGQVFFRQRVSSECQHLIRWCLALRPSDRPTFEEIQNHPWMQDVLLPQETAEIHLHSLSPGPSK
T1 sequence (Q9P1W9 whole entry): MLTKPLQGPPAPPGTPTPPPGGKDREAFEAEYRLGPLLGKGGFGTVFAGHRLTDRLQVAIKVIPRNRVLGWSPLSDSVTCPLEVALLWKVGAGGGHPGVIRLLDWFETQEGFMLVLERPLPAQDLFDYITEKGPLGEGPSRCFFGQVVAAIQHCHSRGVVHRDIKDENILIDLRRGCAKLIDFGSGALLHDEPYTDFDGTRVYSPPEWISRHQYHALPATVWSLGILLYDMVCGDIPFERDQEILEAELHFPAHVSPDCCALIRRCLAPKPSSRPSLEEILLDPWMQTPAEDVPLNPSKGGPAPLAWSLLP

On to `COCCc1ccc2ccc(-c3nnc4ccc([C@@H](N5CC[C@H](N)C5)C(F)(F)F)cn34)nc2c1F` [Example 166, (S)-1-((R)-2,2,2-trifluoro-1-(3-(8-fluoro-7-(2-methoxyethyl)quinolin-2-yl)-[1,2,4]triazolo[4,3-a]pyridin-6-yl)ethyl)pyrrolidin-3-amine dihydrochloride], for which the IC50 (usually the concentration that inhibits the measured activity by half) against PIM-1 was 1.33 nM; on recombinant rat PIM-3, 8.9 nM; in assay [1], greater than 100 nM.

On to `COc1cccc2ccc(-c3nnc4ccc([C@@H](N5CC[C@H](NCCF)C5)C(F)(F)F)cn34)nc12` [Example 80, (S)—N-(2-fluoroethyl)-1-((R)-2,2,2-trifluoro-1-(3-(8-methoxyquinolin-2-yl)-[1,2,4]triazolo[4,3-a]pyridin-6-yl)ethyl)pyrrolidin-3-amine dihydrochloride], for which the results for the IC50 (on PIM-1; on recombinant rat PIM-3; in assay [1]) were 6.41 nM, 32 nM and greater than 100 nM, respectively.

With `CC(C)(O)COc1cc2nc(-c3nnc4ccc([C@H](N5CC[C@](C)(N)C5)C(F)(F)F)cn34)ccc2cc1F` [Example 301, 1-(2-(6-((S)-1-((S)-3-amino-3-methylpyrrolidin-1-yl)-2,2,2-trifluoroethyl)-[1,2,4]triazolo[4,3-a]pyridin-3-yl)-6-fluoroquinolin-7-yloxy)-2-methylpropan-2-ol dihydrochloride], the half-inhibitory concentration (IC50) against PIM-1 came out at 0.2 nM; on recombinant rat PIM-3, 0.2 nM; in assay [1] it was 14 nM.

As for `Cc1c(-c2cnn(C)c2C)ccc2ccc(-c3nnc4ccc([C@@H](N5CC[C@H](N)C5)C(F)(F)F)cn34)nc12` [Example 214, (3S)-1-((1R)-1-(3-(7-(1,5-dimethyl-1H-pyrazol-4-yl)-8-methylquinolin-2-yl)-[1,2,4]triazolo[4,3-a]pyridin-6-yl)-2,2,2-trifluoroethyl)pyrrolidin-3-amine dihydrochloride], the figures for the half-maximal inhibitory concentration (IC50) (at PIM-1; on recombinant rat PIM-3; in assay [1]) were 0.38 nM, 0.4 nM and 138 nM, respectively.

In the case of `COCCOc1ccc2ccc(-c3nnc4ccc([C@@H](N5CC[C@H](N)C5)C(F)(F)F)cn34)nc2c1Cl` [Example 174, (S)-1-((R)-1-(3-(8-chloro-7-(2-methoxyethoxy)quinolin-2-yl)-[1,2,4]triazolo[4,3-a]pyridin-6-yl)-2,2,2-trifluoroethyl)pyrrolidin-3-amine hydrochloride], the half-inhibitory concentration (IC50) against PIM-1 is 1.1 nM; at recombinant rat PIM-3 it was 0.8 nM; in assay [1] it was greater than 100 nM.

For `COCCOc1c(F)ccc2ccc(-c3nnc4ccc([C@@H](N5CC[C@H](N)C5)C(F)(F)F)cn34)nc12` [Example 108, (S)-1-((R)-2,2,2-trifluoro-1-(3-(7-fluoro-8-(2-methoxyethoxy)quinolin-2-yl)-[1,2,4]triazolo[4,3-a]pyridin-6-yl)ethyl)pyrrolidin-3-amine hydrochloride], the IC50 at PIM-1 is 0.49 nM; on recombinant rat PIM-3 it was 4.7 nM; in assay [1], greater than 100 nM.

Turning to `CC(C)Oc1cc(F)cc2ccc(-c3nnc4ccc([C@H](N5CCC(C)(O)C5)C(F)(F)F)cn34)nc12` (single isomer, unassigned; diastereomer 1) [Example 202, hydrochloride], the IC50 at PIM-1 was 6.62 nM; on recombinant rat PIM-3, 7.9 nM; in assay [1], greater than 1000 nM.

On to `CC(C)(C)c1cccc2ccc(-c3nnc4ccc([C@@H](N5C[C@@H]6C[C@H]5CN6)C(F)(F)F)cn34)nc12` [Example 62, 2-(6-((R)-1-((1S,4S)-2,5-diazabicyclo[2.2.1]heptan-2-yl)-2,2,2-trifluoroethyl)-[1,2,4]triazolo[4,3-a]pyridin-3-yl)-8-tert-butylquinoline], for which the IC50 on PIM-1 came out at 0.71 nM; on recombinant rat PIM-3, 1.4 nM; in assay [1] it was 2.9 nM.

`COc1cc2nc(-c3nnc4ccc([C@@H](N5C[C@@H](N)[C@@H](O)C5)C(F)(F)F)cn34)ccc2cc1F` [Example 131, (3S,4R)-4-amino-1-((R)-2,2,2-trifluoro-1-(3-(6-fluoro-7-methoxyquinolin-2-yl)-[1,2,4]triazolo[4,3-a]pyridin-6-yl)ethyl)pyrrolidin-3-ol dihydrochloride]: the IC50 at PIM-1 came to 2.18 nM; on recombinant rat PIM-3, 17 nM; in assay [1] it was 787 nM.

With `CC(C)Oc1cccc2ccc(-c3nnc4ccc([C@@H](N5CC[C@@](N)(CF)C5)C(F)(F)F)cn34)nc12` (single isomer, unassigned) [Example 154, dihydrochloride], the figures for the IC50 (at PIM-1; on recombinant rat PIM-3; in assay [1]) were 0.58 nM, 4.2 nM and greater than 100 nM, respectively.

Turning to `CC(C)(O)c1cccc2ccc(-c3nnc4ccc([C@@H](N5CC[C@H](N)C5)C(F)(F)F)cn34)nc12` [Example 225, 2-(2-(6-((R)-1-((S)-3-aminopyrrolidin-1-yl)-2,2,2-trifluoroethyl)-[1,2,4]triazolo[4,3-a]pyridin-3-yl)quinolin-8-yl)propan-2-ol], the IC50 against PIM-1 is 0.27 nM; on recombinant rat PIM-3, 1.1 nM; in assay [1] it was 139 nM.

For the compound `CCOc1cc2nc(-c3nnc4ccc([C@@H](N5CCC(N)(CC)C5)C(F)(F)F)cn34)ccc2cc1F` (single isomer, unassigned; diastereomer 1) [Example 243, dihydrochloride], the values for the IC50 (against PIM-1; on recombinant rat PIM-3; in assay [1]) were 0.54 nM, 2.1 nM and 728 nM, respectively.

Regarding `CC(=O)OCCOc1cc2nc(-c3nnc4ccc([C@@H](N5CC[C@H](N)C5)C(F)(F)F)cn34)ccc2cc1F` [Example 122, 2-(2-(6-((R)-1-((S)-3-aminopyrrolidin-1-yl)-2,2,2-trifluoroethyl)-[1,2,4]triazolo[4,3-a]pyridin-3-yl)-6-fluoroquinolin-7-yloxy)ethyl acetate hydrochloride], the IC50 is 0.2 nM on PIM-1, 0.7 nM on recombinant rat PIM-3 and greater than 100 nM in assay [1].

Regarding `COC[C@@H](C)Oc1cccc2ccc(-c3nnc4ccc(C(C)N5CC[C@H](N)C5)cn34)nc12` (stereo partly drawn) [Example 33, (3S)-1-(1-(3-(8-((R)-1-methoxypropan-2-yloxy)quinolin-2-yl)-[1,2,4]triazolo[4,3-a]pyridin-6-yl)ethyl)pyrrolidin-3-amine trihydrochloride], the results for the half-maximal inhibitory concentration (IC50) (against PIM-1; on recombinant rat PIM-3; in assay [1]) were 1.41 nM, 5.9 nM and 759 nM, respectively.

Take `N[C@H]1CCN([C@H](c2ccc3nnc(-c4ccc5ccc(SCCO)cc5n4)n3c2)C(F)(F)F)C1` [Example 267, 2-(2-(6-((R)-1-((S)-3-aminopyrrolidin-1-yl)-2,2,2-trifluoroethyl)-[1,2,4]triazolo[4,3-a]pyridin-3-yl)quinolin-7-ylthio)ethanol hydrochloride]: the values for the IC50 (on PIM-1; on recombinant rat PIM-3; in assay [1]) were 0.35 nM, 0.7 nM and 350 nM, respectively.

On to `COc1cccc2ccc(-c3nnc4ccc(C(N5CC[C@H](O)C5)C(F)(F)F)cn34)nc12` (stereo partly drawn) [Example 7, (3S)-1-(2,2,2-trifluoro-1-(3-(8-methoxyquinolin-2-yl)-[1,2,4]triazolo[4,3-a]pyridin-6-yl)ethyl)pyrrolidin-3-ol], for which the figures for the half-inhibitory concentration (IC50) (at PIM-1; at recombinant rat PIM-3; in assay [1]) were 3.94 nM, 45 nM and greater than 1000 nM, respectively.

On to `CC(C)(C)c1cccc2ccc(-c3nnc4ccc([C@H](N5CC[C@@H](O)C5)C(F)(F)F)cn34)nc12` [Example 104], for which the values for the IC50 (on PIM-1; on recombinant rat PIM-3; in assay [1]) were 0.17 nM, 12 nM and greater than 100 nM, respectively.

For the compound `N[C@H]1CCN([C@H](c2ccc3nnc(-c4ccc5cc(F)cc(OCC6CC6)c5n4)n3c2)C(F)(F)F)C1` [Example 158, (S)-1-((R)-1-(3-(8-(cyclopropylmethoxy)-6-fluoroquinolin-2-yl)-[1,2,4]triazolo[4,3-a]pyridin-6-yl)-2,2,2-trifluoroethyl)pyrrolidin-3-amine hydrochloride], the IC50 against PIM-1 was 0.16 nM; on recombinant rat PIM-3 it was 1.1 nM; in assay [1], 41 nM.

On to `CC(C)NC(=O)c1cccc2ccc(-c3nnc4ccc([C@@H](N5CC[C@H](N)C5)C(F)(F)F)cn34)nc12` [Example 87, 2-(6-((R)-1-((S)-3-aminopyrrolidin-1-yl)-2,2,2-trifluoroethyl)-[1,2,4]triazolo[4,3-a]pyridin-3-yl)-N-isopropylquinoline-8-carboxamide dihydrochloride], for which the half-inhibitory concentration (IC50) was 35.5 nM against PIM-1, greater than 100 nM on recombinant rat PIM-3 and greater than 100 nM in assay [1].

`CC(C)Oc1cccc2ccc(-c3nnc4ccc([C@@H](N5CC[C@H](NCCO)C5)C(F)(F)F)cn34)nc12` [Example 101, 2-((S)-1-((R)-2,2,2-trifluoro-1-(3-(8-isopropoxyquinolin-2-yl)-[1,2,4]triazolo[4,3-a]pyridin-6-yl)ethyl)pyrrolidin-3-ylamino)ethanol dihydrochloride]: the half-inhibitory concentration (IC50) on PIM-1 was 0.15 nM; on recombinant rat PIM-3, 0.8 nM; in assay [1], 40 nM.

Take `CO[C@@H](C)COc1ccc2ccc(-c3nnc4ccc([C@H](N5CC[C@](C)(N)C5)C(F)(F)F)cn34)nc2c1` [Example 304, (S)-3-methyl-1-((S)-2,2,2-trifluoro-1-(3-(7-((S)-2-methoxypropoxy)quinolin-2-yl)-[1,2,4]triazolo[4,3-a]pyridin-6-yl)ethyl)pyrrolidin-3-amine]: the half-inhibitory concentration (IC50) against PIM-1 is 0.26 nM; at recombinant rat PIM-3 it was 0.3 nM; in assay [1], 65.1 nM.
